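Step 1: Grow cells in 96-well plates. Step 2: Expose to compound for 48 hours at 5 concentrations. Step 3: Interpolate endpoints linearly; if unreached, use highest concentration. Here, GI50 denotes the concentration required for 50% inhibition of growth.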 Active and inactive are the calls of the source. Cut-off read from the data, not from the text of the source: active = GI50 up to about 1.1 µM and inactive = higher.
What was measured:
Experiment in all cases: growth of human tumour cells (NCI), 48 h
LOX IMVI = system: LOX IMVI
MDA-MB-435 = system: MDA-MB-435
MOLT-4 = system: MOLT-4
RXF 631 = system: RXF 631
SF-295 = system: SF-295
SF-268 = system: SF-268
HOP-92 = system: HOP-92
Malme-3M = system: Malme-3M
COLO 205 = system: COLO 205
HOP-18 = system: HOP-18
HCT-15 = system: HCT-15
OVCAR-4 = system: OVCAR-4
SF-539 = system: SF-539
T47D = system: T47D
SN12C = system: SN12C
NCI-H522 = system: NCI-H522
SK-OV-3 = system: SK-OV-3
NCI/ADR-RES = system: NCI/ADR-RES
MCF7 = system: MCF7
MDA-N = system: MDA-N
NCI-H23 = system: NCI-H23
SNB-19 = system: SNB-19
DMS-273 = system: DMS-273
UACC-62 = system: UACC-62
BT-549 = system: BT-549
NCI-H460 = system: NCI-H460
Hs-578T = system: Hs-578T
OVCAR-3 = system: OVCAR-3
HT-29 = system: HT-29
PC-3 = system: PC-3
HOP-62 = system: HOP-62
DU-145 = system: DU-145
OVCAR-8 = system: OVCAR-8
A498 = system: A498
KM-20L2 = system: KM-20L2
U-251 = system: U-251
786-0 = system: 786-0
SK-MEL-2 = system: SK-MEL-2
UO-31 = system: UO-31
KM12 = system: KM12
EKVX = system: EKVX
M14 = system: M14
SNB-75 = system: SNB-75
ACHN = system: ACHN
SNB-78 = system: SNB-78
SW-620 = system: SW-620
NCI-H226 = system: NCI-H226
RXF 393 = system: RXF 393
CAKI-1 = system: CAKI-1
OVCAR-5 = system: OVCAR-5
SK-MEL-5 = system: SK-MEL-5
HCT-116 = system: HCT-116
HL-60 = system: HL-60
SR = system: SR
LXFL 529 = system: LXFL 529
A549 = system: A549
HCC 2998 = system: HCC 2998
XF498 = system: XF498
IGROV-1 = system: IGROV-1
UACC-257 = system: UACC-257
M19-MEL = system: M19-MEL
DMS-114 = system: DMS-114
RPMI-8226 = system: RPMI-8226
CCRF-CEM = system: CCRF-CEM
TK-10 = system: TK-10
SK-MEL-28 = system: SK-MEL-28
DLD-1 = system: DLD-1
K562 = system: K562

CC(=O)OCC1OC(n2c(=S)n(-c3ccc([N+](=O)[O-])cc3)c(=O)c3ccccc32)C(OC(C)=O)C(OC(C)=O)C1OC(C)=O (stereo not given)
GI50 (LOX IMVI): 13.2 µM (inactive) | GI50 (MDA-MB-435): 27 µM (inactive) | GI50 (MOLT-4): 8.22 µM (inactive) | GI50 (RXF 631): 19.2 µM (inactive) | GI50 (SF-295): 23.3 µM (inactive) | GI50 (SF-268): 18.5 µM (inactive) | GI50 (HOP-92): 25.5 µM (inactive) | GI50 (Malme-3M): 15.2 µM (inactive) | GI50 (COLO 205): 27.5 µM (inactive) | GI50 (HOP-18): 13.4 µM (inactive) | GI50 (HCT-15): 29.3 µM | GI50 (OVCAR-4): 20.8 µM (inactive) | GI50 (SF-539): 14.3 µM (inactive) | GI50 (T47D): 17.3 µM (inactive) | GI50 (SN12C): 19.1 µM (inactive) | GI50 (NCI-H522): 15.4 µM (inactive) | GI50 (SK-OV-3): 23.3 µM (inactive) | GI50 (NCI/ADR-RES): 30.7 µM (inactive) | GI50 (MCF7): 16.7 µM (inactive) | GI50 (MDA-N): 27.7 µM (inactive) | GI50 (NCI-H23): 21.3 µM (inactive) | GI50 (SNB-19): 19.9 µM (inactive) | GI50 (DMS-273): 21.9 µM (inactive) | GI50 (UACC-62): 15.7 µM (inactive) | GI50 (BT-549): 2.69 µM (inactive) | GI50 (NCI-H460): 21.7 µM (inactive) | GI50 (Hs-578T): 4.46 µM (inactive) | GI50 (OVCAR-3): 17.1 µM (inactive) | GI50 (HT-29): 21 µM (inactive) | GI50 (PC-3): 15.8 µM (inactive) | GI50 (HOP-62): 21.6 µM (inactive) | GI50 (DU-145): 24.9 µM (inactive) | GI50 (OVCAR-8): 20.1 µM (inactive) | GI50 (A498): 25.5 µM (inactive) | GI50 (KM-20L2): 28.3 µM (inactive) | GI50 (U-251): 18.4 µM (inactive) | GI50 (786-0): 15.3 µM (inactive)

CCN(CC)CCNc1ccc2nnn3c4ccccc4c(=O)c1c23
GI50 (SK-MEL-2): 6.85 µM (inactive) | GI50 (LOX IMVI): 2.86 µM (inactive) | GI50 (UO-31): 4.46 µM (inactive) | GI50 (MOLT-4): 1.66 µM (inactive) | GI50 (RXF 631): 2.88 µM (inactive) | GI50 (SF-295): 4.29 µM (inactive) | GI50 (SF-268): 4.83 µM (inactive) | GI50 (KM12): 4.01 µM (inactive) | GI50 (EKVX): 4.13 µM (inactive) | GI50 (HOP-92): 2.48 µM (inactive) | GI50 (Malme-3M): 4.01 µM (inactive) | GI50 (COLO 205): 3.55 µM (inactive) | GI50 (M14): 3.86 µM (inactive) | GI50 (SNB-75): 3.6 µM (inactive) | GI50 (HCT-15): 4.51 µM | GI50 (ACHN): 3.24 µM (inactive) | GI50 (OVCAR-4): 3.51 µM (inactive) | GI50 (SNB-78): > 10 µM (inactive) | GI50 (SF-539): 6.84 µM (inactive) | GI50 (SW-620): 1.43 µM (inactive) | GI50 (NCI-H226): 2.01 µM (inactive) | GI50 (SN12C): 4.41 µM (inactive) | GI50 (NCI-H522): 4.75 µM (inactive) | GI50 (SK-OV-3): 17.4 µM (inactive) | GI50 (RXF 393): 6.21 µM (inactive) | GI50 (CAKI-1): 3.15 µM (inactive) | GI50 (OVCAR-5): 3.67 µM (inactive) | GI50 (SK-MEL-5): 3.08 µM (inactive) | GI50 (HCT-116): 4.44 µM (inactive) | GI50 (NCI-H23): 5.81 µM (inactive) | GI50 (SNB-19): 5.74 µM (inactive) | GI50 (HL-60): 2.89 µM (inactive) | GI50 (DMS-273): 3.66 µM (inactive) | GI50 (UACC-62): 5.73 µM (inactive) | GI50 (SR): 1.15 µM (inactive) | GI50 (LXFL 529): 5.22 µM (inactive) | GI50 (A549): 3.59 µM (inactive) | GI50 (HCC 2998): 7.31 µM (inactive) | GI50 (XF498): 3.49 µM (inactive) | GI50 (NCI-H460): 2.25 µM (inactive) | GI50 (IGROV-1): 6.98 µM (inactive) | GI50 (UACC-257): 4.48 µM (inactive) | GI50 (OVCAR-3): 5.07 µM (inactive) | GI50 (M19-MEL): 4.86 µM (inactive) | GI50 (HT-29): 2.51 µM (inactive) | GI50 (DMS-114): 6.55 µM (inactive) | GI50 (HOP-62): 4.18 µM (inactive) | GI50 (OVCAR-8): 3.15 µM (inactive) | GI50 (RPMI-8226): 2.45 µM (inactive) | GI50 (A498): 11.4 µM (inactive) | GI50 (KM-20L2): 3.32 µM (inactive) | GI50 (U-251): 3.27 µM (inactive) | GI50 (CCRF-CEM): 2.86 µM (inactive) | GI50 (TK-10): 4.39 µM (inactive) | GI50 (SK-MEL-28): 4.65 µM (inactive) | GI50 (786-0): 4.3 µM (inactive) | GI50 (DLD-1): 4.19 µM (inactive) | GI50 (K562): 2.97 µM (inactive)
